Measurements from US20140363871A1, “PROCESS FOR OBTAINING COPPER NANOPARTICLES FROM A FUNGUS SELECTED BETWEEN HYPOCREA LIXII AND TRICHODERMA KONINGIOPSIS AND USE OF FUNGI SELECTED BETWEEN HYPOCREA LIXII AND TRICHODERMA KONINGIOPSIS IN BIOREMEDIATION OF WASTEWATER AND PRODUCTION OF COPPER NANOPARTICLES” (VALE S.A., priority 2013, published 2014).

Key:
T. koningiopsis = assay: Minimum inhibitory concentration in agar medium (spot plate method); type: cell-based, Trichoderma koningiopsis; conditions: T. koningiopsis on SDA plates with copper 50-2000 mg L^−1, 25° C., at least 5 days
Description: (§1) Copper tolerance of the isolated fungus was determined as the minimum inhibitory concentration (MIC) by the spot plate method [Ahmad I, Ansari M I, Aqil F (2006) Biosorption of Ni, Cr and Cd by metal tolerante Aspergillus niger and Penicillium sp using single and multi-metal solution. Indian J Exp Biol 44: 73-76]. SDA plates containing different concentrations of copper (50 to 2000 mg L^−1) were prepared and inocula of the tested fungus were spotted onto the metal and control plates (plate without metal). The plates were incubated at 25° C. for at least 5 days. The MIC is defined as the lowest concentration of metal that inhibits visible growth of the isolate.

H. lixii = assay: as above; type: cell-based, Hypocrea lixii; conditions: H. lixii on SDA plates with copper 50-2000 mg L^−1, 25° C., at least 5 days
Description: as §1

O.O.[Cl][Cu][Cl] [copper, CuCl2.2H2O]
minimum inhibitory concentration (MIC), tolerance to copper (T. koningiopsis): 1057 µg/mL
minimum inhibitory concentration (MIC), tolerance to copper (H. lixii): 528 µg/mL
